Laboratory results: ChEMBL document CHEMBL4808187, “Antiarrhythmic Hit to Lead Refinement in a Dish Using Patient-Derived iPSC Cardiomyocytes” (J Med Chem, 2021)
Active and inactive are the calls of the source. The calls are words filed in the database; no cut-off is given here.

Columns and labels:
[1] = Antiarrhythmic activity in hiPSC-CMs assessed as dose for induction of early after depolarizations; conditions: human, ipsc-cm
[2] = (§1) Antiarrhythmic activity in patient-derived hiPSC-CMs carrying LQT3 mutation assessed as cessation dose for cell beating; assay type: functional, Homo sapiens, iPSC-CM
Homo sapiens = species: Homo sapiens; assay: Selectivity index, ratio of IC50 for potassium channel (unknown origin) expressed in CHO cells assessed as reduction in potassium current to IC50 for sodium channel (unknown origin) expressed in HEK cells assessed as reduction in late inward sodium current
[3] = Antiarrhythmic activity in patient-derived hiPSC-CMs carrying LQT3 mutation assessed as shortening of action potential duration; assay type: functional, Homo sapiens; conditions: ipsc-cm
[4] = Antiarrhythmic activity in hiPSC-CMs assessed as cessation dose of cell beating; conditions: human, ipsc-cm
[5] = Inhibition of sodium channel (unknown origin) expressed in HEK cells assessed as reduction in late inward sodium current by automated patch clamp method; assay type: cell-based; conditions: Homo sapiens, HEK293
[6] = Antiarrhythmic activity in patient-derived hiPSC-CMs carrying LQT3 mutation assessed as shortening dose of action potential; assay type: functional, Homo sapiens, iPSC-CM
[7] = Antiarrhythmic activity in hiPSC-CMs assessed as prolongation of action potential; parameters: species or system Homo sapiens, iPSC-CM
[8] = Antiarrhythmic activity in patient-derived hiPSC-CMs carrying LQT3 mutation assessed as fold shortening of action potential duration relative to control; assay type: functional, Homo sapiens, iPSC-CM; further: test concentration or dose not given here
[9] = Inhibition of potassium channel (unknown origin) expressed in CHO cells assessed as reduction in potassium current by automated patch clamp method; assay type: cell-based
[10] = Inhibition of sodium channel (unknown origin) expressed in HEK cells assessed as reduction in peak sodium current by automated patch clamp method; assay type: cell-based; conditions: Homo sapiens, HEK293
[11] = Antiarrhythmic activity in hiPSC-CMs assessed as fold prolongation of action potential relative to control; conditions: human, ipsc-cm
iPSC-CM = assay: as §1; assay type: functional; conditions: Homo sapiens
[12] = Homo sapiens, iPSC-CM, read-out: EC50

IC50 [5] [µM] | IC50 [9] [µM] | IC50 [10] [µM] | SMILES | Activity [1] | Activity [2] [µM] | Ratio IC50 (Homo sapiens) | EC50 [3] | Activity [4] | Activity [6] [µM] | EC50 ([7]; ipsc-cm) | fold change (FC) [8] | fold change (FC) [11] | Activity [11] | Activity (iPSC-CM) | EC50 ([3]; read-out: EC50) [µM] | EC50 [7, 12] [µM]
1.03 | 9.2 | 10.9 | Cc1cccc(OCC(N)c2ccccc2)c1C.Cl (centres undefined) | Not Active | 66 | 8.9 | Not Active | 133 µM | 22 | Not Active | 1.406 |  |  |  |  | 
 |  |  | Cc1cccc(C)c1OCC(N)c1ccccc1.Cl (centres undefined) |  |  |  |  |  |  |  |  | 4 |  |  |  | 
 |  |  | Cc1cccc(C)c1OCC(NC(=O)c1ccccc1)c1ccccc1 (centres undefined) | Not Active |  |  |  | Not Active | 66 |  | 1.64 |  | Not Active | inactive | 0.8 | 
 |  |  | Cc1cccc(OCC(C)N)c1.Cl (centres undefined) | 66 µM |  |  | Not Active | Not Active | 200 |  | 1.418 |  |  | inactive |  | 27.3
 |  |  | Cc1ccc(OCC(N)c2ccccc2)cc1C.Cl (centres undefined) | Not Active | 66 |  | Not Active | 66 µM | 22 | Not Active | 1.37 |  |  |  |  | 
 |  |  | CCCCNC(COc1cccc(C)c1C)c1ccccc1.Cl (centres undefined) | Not Active | 200 |  |  | 133 µM | 133 |  | 1.423 |  | Not Active |  | 20.2 | 
 |  |  | Cl.NC(COc1cccc2ccccc12)c1ccccc1 (centres undefined) | Not Active | 66 |  |  | Not Active | 66 | Not Active | 1.316 |  |  |  | 0.82 | 
36 | 44.1 | 124 | CNC(C)COc1c(C)cccc1C.Cl (centres undefined) | 22 µM | 133 | 1.2 |  | 66 µM |  |  |  |  |  |  | 1.5 | 7.8
 |  |  | CCc1ccccc1OCC(C)N.Cl (centres undefined) | Not Active |  |  |  | Not Active | 22 |  | 1.118 |  |  | inactive | 6 | 23.5
 |  |  | COCCNC(COc1cc(C(F)(F)F)cc(C(F)(F)F)c1)c1ccccc1.Cl (centres undefined) | Not Active | 66 |  |  | Not Active | 66 |  | 1.636 |  | Not Active |  | 6.59 | 
 |  |  | Cc1cccc(C)c1OCC(N)C1CCCCC1.Cl (centres undefined) | Not Active | 66 |  |  | 66 µM | 0.8 | Not Active | 1.136 |  |  |  | < 0.8 | 
 |  |  | COCCNC(C)COc1c(C)cccc1C.Cl (centres undefined) | 66 µM |  |  |  | Not Active | 7.4 |  |  |  |  | inactive | 2.3 | 32
 |  |  | CNC(COc1cccc(C)c1C)c1ccccc1.Cl (centres undefined) | Not Active | 66 |  | Not Active | 133 µM | 22 |  | 1.29 |  | Not Active |  |  | 
 |  |  | CC(N)COc1ccccc1C(F)(F)F.Cl (centres undefined) | Not Active |  |  | Not Active | Not Active | 133 | Not Active | 1.375 |  |  | inactive |  | 
 |  |  | CCc1ccccc1OCC(N)c1ccccc1.Cl (centres undefined) | Not Active | 22 |  |  | 66 µM | 7.4 | Not Active | 1.979 |  |  |  | < 0.8 | 
 |  |  | Cl.NC(COc1ccccc1OC(F)(F)F)c1ccccc1 (centres undefined) | Not Active | 66 |  |  | 66 µM | 22 | Not Active | 1.513 |  |  |  | 2.6 | 
 |  |  | Cl.NC(COc1ccccc1OCC(F)(F)F)c1ccccc1 (centres undefined) | Not Active | 66 |  |  | 66 µM | 22 | Not Active | 1.409 |  |  |  | 0.9 | 
 |  |  | Cl.NC(COc1cccc(C(F)(F)F)c1)c1ccccc1 (centres undefined) | Not Active | 66 |  |  | 66 µM | 22 | Not Active | 1.539 |  |  |  | 4.1 | 

IC50 [5] [µM] | IC50 [9] [µM] | IC50 [10] [µM] | SMILES | Activity [1] | Activity [2] [µM] | Ratio IC50 (Homo sapiens) | EC50 [3] | Activity [4] | Activity [6] [µM] | EC50 ([7]; ipsc-cm) | fold change (FC) [8] | fold change (FC) [11] | Activity [11] | Activity (iPSC-CM) | EC50 ([3]; read-out: EC50) [µM] | EC50 [7, 12] [µM]
 |  |  | Cc1cccc(C)c1OCC(N)c1ccc2ccccc2c1.Cl (centres undefined) | Not Active | 133 |  |  | Not Active | 22 | Not Active | 1.309 |  |  |  | 4.73 | 
 |  |  | Cc1ccc(OCC(N)c2ccccc2)c(C)c1.Cl (centres undefined) | Not Active | 66 |  |  | 66 µM | 7.4 | Not Active | 1.192 |  |  |  | 0.5 | 
 |  |  | COc1ccccc1OCC(N)c1ccccc1.Cl (centres undefined) | 7.4 µM | 133 |  |  | 22 µM | 0.8 |  | 1.482 |  |  |  | < 0.8 | 32.2
 |  |  | CCCCNC(C)COc1c(C)cccc1C.Cl (centres undefined) | 66 µM | 66 |  |  | 133 µM | 2.5 |  | 1.18 |  |  |  | < 0.8 | 7.8
 |  |  | CC(N)COc1cc(C(F)(F)F)cc(C(F)(F)F)c1.Cl (centres undefined) | Not Active | 66 |  |  | 133 µM | 7.4 | Not Active | 1.2 |  |  |  | 0.9 | 
 |  |  | Cc1cccc(OCC(N)c2ccccc2)c1.Cl (centres undefined) | Not Active | 66 |  |  | 133 µM | 22 | Not Active | 1.41 |  |  |  | < 0.8 | 
 |  |  | Cc1cccc(C)c1OCC(C)NCc1ccccc1.Cl (centres undefined) | Not Active | 133 |  | Not Active | 200 µM | 22 |  | 1.264 |  |  |  |  | 5.7
 |  |  | CC(=O)NC(COc1c(C)cccc1C)c1ccccc1 (centres undefined) | Not Active | 66 |  |  | Not Active | 22 |  | 1.62 |  | Not Active |  | 0.8 | 
 |  |  | CC(N)COc1cccc(C(F)(F)F)c1.Cl (centres undefined) | Not Active | 200 |  |  | 200 µM | 133 | Not Active | 1.661 |  |  |  | 31.3 | 
 |  |  | Cc1ccc(OCC(N)C2CC2)c(C)c1.Cl (centres undefined) | 66 µM | 200 |  |  | 200 µM | 66 |  | 1.119 | 2.12 |  |  | 1.36 | 
 |  |  | Cc1ccc(OCC(N)C2CC2)cc1C.Cl (centres undefined) | Not Active | 66 |  | Not Active | 66 µM | 22 |  | 1.18 |  | Not Active |  |  | 
 |  |  | CCCc1ccccc1OCC(N)c1ccccc1.Cl (centres undefined) | Not Active | 22 |  |  | 22 µM | 2.5 | Not Active | 1.321 |  |  |  | < 0.8 | 
 |  |  | Cc1ccccc1OCC(C)N.Cl (centres undefined) | 200 µM |  |  |  | Not Active | 22 |  | 1.284 |  |  | inactive | < 0.8 | 83.9
 |  |  | CCCc1ccccc1OCC(C)N.Cl (centres undefined) | Not Active | 133 |  |  | 200 µM | 7.4 |  | 1.192 |  |  |  | 0.9 | 7.8
 |  |  | CCCNC(C)COc1c(C)cccc1C.Cl (centres undefined) | 66 µM | 200 |  | Not Active | 200 µM | 2.5 |  | 1.199 |  |  |  |  | 10.4
 |  |  | Cc1cc(C)cc(OCC(NCCO)c2ccccc2)c1.Cl (centres undefined) | Not Active | 22 |  | Not Active | 66 µM | 22 |  | 1.5 |  | Not Active |  |  | 
 |  |  | Cl.NC(COc1ccc2ccccc2c1)c1ccccc1 (centres undefined) | Not Active | 133 |  |  | Not Active | 2.5 | Not Active | 1.459 |  |  |  | 8.7 | 
